The values below come from paper PMC7659177 (ACS omega, 2020).

In this assay the target is IP3R1 (HEK-IP3R1 cells) (Rattus norvegicus, UniProt P29994). The assay can be described thus: Ca2+ release from stores of permeabilized cells, Mag-fluo […]. It is filed as cell-based.
Chain of IP3R1 (HEK-IP3R1 cells) (P29994 whole entry): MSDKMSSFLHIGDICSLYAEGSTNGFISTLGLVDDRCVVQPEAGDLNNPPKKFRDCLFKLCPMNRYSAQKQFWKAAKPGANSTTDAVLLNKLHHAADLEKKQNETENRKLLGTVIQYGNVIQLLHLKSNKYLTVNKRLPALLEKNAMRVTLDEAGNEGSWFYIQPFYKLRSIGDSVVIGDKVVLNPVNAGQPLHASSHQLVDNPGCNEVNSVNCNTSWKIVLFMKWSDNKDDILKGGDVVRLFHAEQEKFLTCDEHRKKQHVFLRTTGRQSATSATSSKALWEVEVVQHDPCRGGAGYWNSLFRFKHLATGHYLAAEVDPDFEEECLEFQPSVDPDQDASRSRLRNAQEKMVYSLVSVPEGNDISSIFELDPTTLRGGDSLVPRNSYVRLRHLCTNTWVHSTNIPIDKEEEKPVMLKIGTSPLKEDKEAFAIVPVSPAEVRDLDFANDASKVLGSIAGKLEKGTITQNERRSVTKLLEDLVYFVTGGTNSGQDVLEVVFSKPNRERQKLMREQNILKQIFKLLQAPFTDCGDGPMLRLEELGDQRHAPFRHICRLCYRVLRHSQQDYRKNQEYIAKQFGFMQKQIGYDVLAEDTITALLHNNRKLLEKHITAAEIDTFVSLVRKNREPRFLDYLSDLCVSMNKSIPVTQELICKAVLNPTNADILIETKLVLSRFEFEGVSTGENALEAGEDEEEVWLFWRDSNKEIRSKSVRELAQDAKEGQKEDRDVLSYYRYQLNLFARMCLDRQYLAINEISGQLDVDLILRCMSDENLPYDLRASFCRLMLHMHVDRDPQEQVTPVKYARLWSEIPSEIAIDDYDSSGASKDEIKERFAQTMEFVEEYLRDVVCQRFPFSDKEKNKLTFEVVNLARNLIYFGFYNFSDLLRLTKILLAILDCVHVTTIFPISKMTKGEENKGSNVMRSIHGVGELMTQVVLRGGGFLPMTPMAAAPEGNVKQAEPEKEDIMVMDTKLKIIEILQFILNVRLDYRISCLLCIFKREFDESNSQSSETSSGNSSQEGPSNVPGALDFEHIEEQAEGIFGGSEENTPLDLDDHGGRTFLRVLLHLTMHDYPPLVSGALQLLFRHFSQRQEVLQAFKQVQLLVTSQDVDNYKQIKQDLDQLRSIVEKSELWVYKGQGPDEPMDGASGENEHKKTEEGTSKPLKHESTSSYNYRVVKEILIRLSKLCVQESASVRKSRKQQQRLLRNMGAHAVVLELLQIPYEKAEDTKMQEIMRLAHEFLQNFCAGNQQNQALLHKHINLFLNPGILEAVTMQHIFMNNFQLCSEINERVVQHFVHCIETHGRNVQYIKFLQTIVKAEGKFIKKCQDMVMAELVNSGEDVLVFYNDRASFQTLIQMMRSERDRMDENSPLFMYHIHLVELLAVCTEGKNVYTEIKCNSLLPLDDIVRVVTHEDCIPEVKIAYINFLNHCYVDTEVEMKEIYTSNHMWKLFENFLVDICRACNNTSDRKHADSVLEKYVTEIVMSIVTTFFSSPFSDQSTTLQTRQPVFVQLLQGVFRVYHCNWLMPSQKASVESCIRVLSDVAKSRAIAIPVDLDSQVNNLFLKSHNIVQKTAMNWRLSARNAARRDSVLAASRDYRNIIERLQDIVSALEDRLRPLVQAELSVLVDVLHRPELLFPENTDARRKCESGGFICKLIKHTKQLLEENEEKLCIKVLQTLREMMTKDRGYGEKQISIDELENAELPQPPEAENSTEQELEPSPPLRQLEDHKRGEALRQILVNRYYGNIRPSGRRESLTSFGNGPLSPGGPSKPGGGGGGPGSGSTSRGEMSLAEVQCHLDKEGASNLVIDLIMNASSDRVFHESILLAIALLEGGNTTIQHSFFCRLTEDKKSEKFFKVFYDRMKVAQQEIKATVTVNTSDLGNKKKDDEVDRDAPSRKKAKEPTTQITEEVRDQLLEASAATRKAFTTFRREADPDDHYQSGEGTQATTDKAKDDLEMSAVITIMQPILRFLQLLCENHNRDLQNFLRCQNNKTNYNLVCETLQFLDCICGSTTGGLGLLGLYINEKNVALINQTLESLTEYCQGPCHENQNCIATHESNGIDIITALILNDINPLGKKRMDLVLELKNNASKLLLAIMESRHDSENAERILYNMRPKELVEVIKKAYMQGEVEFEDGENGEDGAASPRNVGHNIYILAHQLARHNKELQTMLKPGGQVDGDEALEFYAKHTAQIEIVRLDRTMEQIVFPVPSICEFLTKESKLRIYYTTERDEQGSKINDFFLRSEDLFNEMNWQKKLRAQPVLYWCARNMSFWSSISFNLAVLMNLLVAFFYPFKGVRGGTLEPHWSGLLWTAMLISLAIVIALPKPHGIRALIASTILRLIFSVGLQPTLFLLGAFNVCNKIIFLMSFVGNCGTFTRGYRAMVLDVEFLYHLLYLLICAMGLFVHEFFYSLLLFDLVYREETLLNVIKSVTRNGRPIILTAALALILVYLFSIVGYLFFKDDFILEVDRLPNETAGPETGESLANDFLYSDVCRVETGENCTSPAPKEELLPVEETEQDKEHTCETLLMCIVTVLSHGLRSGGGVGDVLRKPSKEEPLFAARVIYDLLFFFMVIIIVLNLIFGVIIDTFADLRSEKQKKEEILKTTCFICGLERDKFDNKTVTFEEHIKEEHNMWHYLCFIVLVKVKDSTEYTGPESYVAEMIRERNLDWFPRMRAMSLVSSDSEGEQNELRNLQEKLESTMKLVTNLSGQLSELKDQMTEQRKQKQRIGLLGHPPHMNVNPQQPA

In general, EC50 refers to the concentration giving half of the maximal effect. In the case of `Nc1ncnc2c1ncn2[C@@H]1O[C@H](CO)[C@@H](O[C@H]2[C@H](O)[C@H](O)[C@@H](OP(=O)(O)O)[C@H](OP(=O)(O)O)[C@H]2O)[C@H]1OP(=O)(O)O` [compound 5, 3' -O-(1″ -D-chiro-Inosityl)adenosine 2’, 3″, 4″ -trisphosphate], the half-maximal effective concentration (EC50) was found to be 22 nM.
